# ChEMBL document CHEMBL3507680, “University of Dundee, Gates Library screen for HepG2 cell viability”
# Test: Human HepG2 cell viability assay in 384 well format
# Type: toxicity, cell-based
# Set-up: dose 125 nL, time 70.5 hour; concentration not given beside the values
# Conditions: HepG2 cells, read-out: Inhibition
row,Compound,cytotoxicity at 70.5 h [%]
1,Cc1nn(C)c2cn(C(C)C(=O)NCc3ccccn3)nc12 (configuration not stated),-11.2
2,CC1CCN(C(=O)c2cc(NC(=O)c3ccccc3)n(C)n2)CC1,-14.1
3,Cn1nc(C(=O)N2CCCCCC2)cc1NC(=O)c1ccccc1,-9.93
4,CC(=O)OCc1ccc(CN2CCCCCC2c2cc(C)no2)o1 (configuration not stated),24.7
5,Cn1cccc1C(=O)N1CCCCC1c1ccn2ccnc2n1 (configuration not stated),-1.33
6,CCc1noc(CCC(=O)N[C@@H]2CC[C@@H](n3ccnc3C)[C@@H]2O)n1,-1.14
7,CCc1noc(CCC(=O)N[C@@H]2CC[C@@H](n3ccnc3)[C@@H]2O)n1,-8.61
8,COc1ccccc1Oc1cncc(C2CCCN(CC(N)=O)C2)n1 (configuration not stated),11.9
9,CC1(C2CCN(CC(N)=O)CC2)CN(Cc2ccccc2)C(=O)CO1 (configuration not stated),-6.63
10,CNC(=O)CN1CCC2(CC1)C[C@@H](O)[C@H](c1ccccc1)NC2=O,-4.55
11,CC(C)N1CCC2(CC1)C[C@@H](O)[C@H](c1ccccc1)NC2=O,9.43
12,C[C@]1(O)CCN(Cc2ncccc2F)C[C@@H]1Oc1cccc(F)c1,-3.05
13,O[C@@H]1CN(Cc2cnccn2)C[C@H]1Oc1ccccc1,-6.26
14,Cc1nccc(C2CCCCN2Cc2ccccc2)n1 (configuration not stated),-5
15,CNC(=O)c1cn[nH]c1C1CCN(Cc2ccccc2OC)C1 (configuration not stated),-8.12
16,Cc1noc(C)c1-c1cccc(C2CCCNC2)n1 (configuration not stated),2.18
17,Oc1nc(N2CCCC2)nc2c1CCN(Cc1ccsc1)CC2,-8.09
18,Cn1cc(C(=O)N2CCCC(Cc3cncc4ccccc34)C2)cn1 (configuration not stated),-1.78
19,Cc1cc(C)nc(C2CCN(C(=O)CCn3nnc4ccccc43)C2)n1 (configuration not stated),-6.12

row,Compound,cytotoxicity at 70.5 h [%]
1,CCCn1nccc1-c1cc(C2CCN(S(C)(=O)=O)CC2)ccn1,-6.09
2,Cc1noc(C)c1-c1cc(C2CCNCC2)ccn1,3.08
3,NC(=O)c1cc2c(nc1N)CCN(C(=O)C1CCCCC1)C2,7.07
4,CCc1nccn1-c1nccnc1C1CCN(C(=O)COC)CC1,14.8
5,Cc1cc(N)nc(C2(C)CCCN2C(=O)Cc2ccc(F)cc2)n1 (configuration not stated),-8.7
6,CCC(=O)N1CCC(c2nc3c(c(NC)n2)CN(C)CC3)C1 (configuration not stated),-9.93
7,Cc1ncc(CN2CCOC(c3ccc(-c4ccccc4F)cn3)C2)s1 (configuration not stated),49.2
8,NC(=O)c1ccc(C2CCCNC2)nc1 (configuration not stated),-4.69
9,Cc1ccc(-c2ccc(CC3NCCN(C)C3=O)cc2)cc1 (configuration not stated),20.9
10,c1cn(-c2cnc(C3CCCNC3)cn2)cn1 (configuration not stated),22.8
11,Cc1nc(-c2cc(C(=O)NCCN3CCOCC3)c3ccccn23)cs1,-131
12,Cc1nc(CN2CCOCC3(CCN(c4cnccn4)CC3)C2)cs1,-82.2
13,c1ccc(CN2CCCn3nnc(CNc4ncccn4)c3C2)nc1,-87.8
14,COCCO[C@H]1CCN(C(=O)c2cccnc2)[C@H]1Cc1cnn(C)c1,-96.2
15,CN1CC(=O)N(c2ccsc2)CC12CCN(S(=O)(=O)C1CC1)C2 (configuration not stated),-96.5
16,c1cnc(NCc2nnn3c2CN(Cc2cccs2)CCC3)nc1,-115
17,CC(C)(CO)CNC(=O)c1cc(-c2cc[nH]n2)n2ccccc12,-97.3
18,C1CC(CO[C@@H]2CC[C@H]3[C@H]2OCCN3CC2CC2)CCO1,-82.4
19,C1CCC(CO[C@@H]2CC[C@H]3[C@H]2OCCN3CC2CCOCC2)C1,-84.4

row,Compound,cytotoxicity at 70.5 h [%]
1,CCO[C@@H]1CC[C@H]2[C@H]1OCCN2CC1CCC1,-104
2,COc1nn(C)c2c1CCCN(C(=O)c1ccc3ccccc3n1)C2,8.68
3,O=C(c1cnccn1)N1C[C@@H](OCc2ccncc2)[C@@H]2OCCC[C@@H]21,-8.9
4,O=C1COC2(CCN(Cc3ccco3)CC2)CN1,-7.36
5,CCOCC1CN(Cc2ccc(OC)cc2)Cc2nn(CC3CC3)cc21 (configuration not stated),-5.83
6,O=C(C1CCC1)N1C[C@@H]2CCN(c3cccnc3)C[C@@H]2C1,30
7,Cn1ccnc1CN1C[C@@H]2[C@@H](C1)OCC(=O)N2CC1CCCC1,-21.4
8,c1csc(NCc2n[nH]c3c2CCN(CC2CC2)C3)n1,-14.2
9,O=C(CC1CCCC1)N1C[C@H](OCc2ccncc2)[C@H]2OCCC[C@H]21,-27.1
10,CN(C)C(=O)CC1CC2(CCN(Cc3ccco3)CC2)c2ccccc21 (configuration not stated),-27.6
11,O=C1COC2(CCN(CC3CC3)CC2)CN1c1cncnc1,-13.3
12,CNC(=O)CN1CCc2c(CNc3nccs3)n[nH]c2C1,-10.9
13,O=C(Nc1cccnc1)[C@@H]1COC[C@H]2CN(C3CCCC3)C[C@H]21,-124
14,c1cncc(OC[C@@]23CCO[C@@H]2CCN(Cc2cccs2)C3)c1,-100
15,Cn1cc(C(=O)NCc2cn3c(n2)CN(CC2CCOC2)CC3)cn1 (configuration not stated),-110
16,CNC(=O)CN1CCCC12CCN(Cc1c[nH]cn1)CC2,-24.2
17,CCOCC1CN(Cc2ccccn2)Cc2nn(CC3CC3)cc21 (configuration not stated),-4.99
18,COCC1c2c(cnn2C)CCN1Cc1ccc(C)cc1 (configuration not stated),42.3
19,COCC1c2c(cnn2C)CCN1Cc1cccc(C)c1 (configuration not stated),-1.18
